Molecules are shown by their SMILES. Read-outs that look alike come from different tables or passages of the source.

One data set deals with PEO4. Conditions: read-out: cytotoxicity IC50 PEO4; Tables 3A/4B/4C; MTT assay. A general note: Formazan colour is commonly taken as a measure of viable cells.
In a further data set the test system is PEA2. Conditions: read-out: cytotoxicity IC50 PEA2; Tables 3A/4B/4C; MTT assay.
The test system of another data set is multiple myeloma. The following applies: cited from earlier work.
The test system of data set [1] is SiHa.
The test system of data set [2] is CaSki.
Data set [3] deals with HeLa.
Data set [4] relates to SiHa. The data set is described as follows: MTT cytotoxicity assay, SiHa. The following applies: read-out: cytotoxicity IC50 SiHa; Tables 3A/4B/4C; MTT assay.
In the next data set the test system is TOV21G. The data set is described as follows: MTT cytotoxicity assay, TOV21G. The following applies: read-out: cytotoxicity IC50 TOV21G; Tables 3A/4B/4C; MTT assay.
For a further data set, the system named is UWB1.289 + BRCA1. Put plainly: MTT cytotoxicity assay, UWB1.289 + BRCA1. Type of data set: cell-based. The following applies: Tables 3A/4B/4C, BRCA1 + Ve.
In another data set the test system is KLE. The data set is described as follows: MTT cytotoxicity assay, KLE. Conditions: read-out: cytotoxicity IC50 KLE, Tables 3A/4B/4C.
Data set [5] relates to CaSki. Put plainly: MTT cytotoxicity assay, CaSki. Conditions: read-out: cytotoxicity IC50 CasKi; Tables 3A/4B/4C; MTT assay.
The next data set concerns TC1-Lu. The data set is described as follows: MTT cytotoxicity assay, TC1-Lu. The following applies: read-out: cytotoxicity IC50 TC1-Lu; Tables 3A/4B/4C; MTT assay.
Data set [6] relates to HeLa. The data set is described as follows: MTT cytotoxicity assay, HeLa. Conditions: read-out: cytotoxicity IC50 HeLa, Tables 3A/4B/4C.
A further data set has as its system HEC-1A. Put plainly: MTT cytotoxicity assay, HEC-1A. Conditions: read-out: cytotoxicity IC50 HEC-1A, Tables 3A/4B/4C.

As for `N.N.[Cl][Pt][Cl]` [CP, Cisplatin], the IC50 with PEO4 amounted to 19500 nM; in the data set with PEA2, 9850 nM.
As to `C=CC(=O)N1CC/C(=C\c2ccc(F)c([N+](=O)[O-])c2)C(=O)/C(=C/c2ccc(F)c([N+](=O)[O-])c2)C1` [VLX1570], the “dose at which anti-myeloma effects were observed” value with multiple myeloma (phase I patients (70)) is reported as at least 0.6 mg/kg. Moreover, in the data set with multiple myeloma (two patients at the 1.2 mg/kg dose level (70)), the adverse events result is “severe, abrupt, and progressive respiratory insufficiency, culminating in death”. In addition, the IC50 in the data set with SKOV3 is 128 nM; in the data set on SiHa [1], 54 nM; in the data set with BR5-Luc it was 4.8 nM; in the data set with CaSki [2], 68 nM; with SKOV3-TR it was 300 nM; with OVCAR3, 18 nM. For the same compound, the IC50 with RPE1-ATMKO came to 963 nM; in the data set on HeLa [3], 111 nM; with DLD-BRCA2-Ve it was 8540 nM; with BR5-FvB1 it was 250 nM; in the data set with DLD-Seckle, 964 nM.
As for `C[C@@H]1/C(=C\c2ccc([N+](=O)[O-])cc2)C(=O)/C(=C/c2ccc([N+](=O)[O-])cc2)CN1C(=O)[C@@H](N)Cc1ccccc1` [RA413R], the IC50 in the data set with SiHa [4] is 139 nM; in the data set on TOV21G, 20 nM; in the data set with UWB1.289 + BRCA1, below 20 nM; in the data set with SKOV3, 161 nM; in the data set on KLE, 1430 nM; in the data set on CaSki [5], 220 nM. In addition, the IC50 with TC1-Lu came to 1800 nM; in the data set on HeLa [6], 172 nM; with HEC-1A, 268 nM.

The values above are taken from US12673918B2, “Small molecule RPN13 inhibitors with antitumor properties” (The Johns Hopkins University, priority 2019, dated 2026).
